Assays:
[1] = Stability of the particles in 0.1 N hydrochloric acid solution, HPLC assay; assay type: physicochemical; details: 0.1 N HCl medium at 25° C., 500 ml, 20 mg of BZ, 120 minutes of incubation; percentage of the initial dose
Procedure: Measurement of the stability of the particles in 0.1 N hydrochloric acid solution, via an HPLC assay method: • Column (ProntoSlL, Bischoff, Germany): C18, 5 μm, 120 Å, 4.6×150 mm, • Mobile phase: methanol, 65%/10 mM Na2HPO4, 35%, • Flow rate: 1.00 mL/min, • Temperature: 20° C. (thermostat), • Detection: UV (λ=310 nm) • Injection volume: 20 μL.
The stability is measured in 0.1 N HCl medium at 25° C., for a volume of 500 ml and 20 mg of BZ. The results collated in FIG. 2 are expressed as a percentage of the initial dose.

[2] = Test of gastroprotection and preliminary bioavailability on animals (oral administration); details: rat, in vivo, fasted male Sprague-Dawley rats, 40 mg/kg of BZ
Procedure: Test of gastroprotection and preliminary bioavailability on animals. In this test, the protective capacity of the BZ-AT formulation according to the invention as described in this example and of an unprotected form of BZ are compared.
Each formulation is administered orally to male Sprague-Dawley rats weighing between 175-250 g. Tests are performed with pure BZ and the BZ-AT form taken up at 10 mg/ml in the following aqueous solution:
The volume that may be administered is adjusted as a function of each animal to enable a dose of 4 mL/kg to be achieved, i.e. 40 mg/kg of BZ. The administration is performed orally on the fasted animal.

degradation [1]: 100%
AUC [2]: < 5 ng·h/mL
Cmax [2]: 2.54 ng/mL
Tmax [2]: 48 min
SMILES: COCCCOc1ccnc(C[S+]([O-])c2nc3ccccc3[nH]2)c1C (stereo not shown) [BZ, 2-([4-(3-methoxypropoxy)-3-methylpyridin-2-yl]methylsulfinyl)-1H-benzo[d]imidazole]
